Marks after values point to notes of the source that are not given here.

The subject of the assay is TNBS-induced ulcerative colitis model mice. The assay can be described thus: TNBS-induced mice ulcerative colitis model. More on the design: key to Scores of gross morphological damages: 0 = no adhesion/ulcer/inflammation, 4+ = severe ulcers (+1 per cm). Conditions: for Score (body weight index according to the disease activity index, DAI): 0-4 points by weight decrease; for Score (body weight index according to the disease activity index, DAI) / Length of the colon / Weight of the colon / Histopathology scores / Scores of gross morphological damages / weight/length ratio (average) of colon: ig 7 days, sulfasalazine 500 mg/kg; for Score (body weight index according to the disease activity index, DAI) / Length of the colon / Weight of the colon / Histopathology scores / Scores of gross morphological damages / weight/length ratio (average) of colon / Ratio of weight loss: compound 20 mg/kg; for Length of the colon / Weight of the colon: 24 hours after last administration; for diarrhea of the mice (general condition): TNBS-mediated UC model BALB/c mice, Compound 16 in three different dosage groups, sulfasalazine control group; for extent of ulcer lesions of colon and visceral adhesions: compound 312 at 5 mg/kg, 20 mg/kg, 50 mg/kg and positive drugs, vs model group; for histopathology of colon (HE staining, mucosal integrity / lesions): compared with the model group; for Histopathology scores: H&E colon sections, epithelial cells and inflammatory cell infiltration points; for Scores of gross morphological damages: colon adhesion, ulceration, inflammation points; for weight/length ratio (average) of colon: colon weight (g) / length (cm); for Ratio of weight loss: ig daily for 7 days from day of modeling, positive drug sulfasalazine 500 mg/kg, 10 mice per group. The assay is classed as in vivo, BALB/c male mice. Here is the method: BALB/c male mice (each 18-22 g) of SPF level were purchased from Shanghai Slack Laboratory Animal Co., Ltd. and were used in experiments after adaptive feeding for 7 days.
BALB/c male mice were kept in an animal cage (daylight and darkness of 12 hours, respectively) at a temperature of 20-25° C. and relative humidity of 50-60%, free access to food and water.
Mice were randomly divided into normal control group, trinitrobenzenesulfonic acid (TNBS) model group, drug treatment group and positive drug control group (sulfasalazine 500 mg/kg).
All of the mice in model group and administration group were shaved in the abdomen (area 2×2 cm) and sensitized with 1% TNBS (dissolved in 50% ethanol). On the 7th day, the mice were fasted, but not water. After 24 hours, the mice were anesthetized through intraperitoneal injection of 0.1 ml of 10% chloral hydrate and 2% TNBS was used for lavation to establish a mouse model of ulcerative colitis. A gavage needle for rat was inserted into the colon of a mouse, the tip of the needle was about 3˜3.5 cm away from the anus, and 0.1 ml of modeling solution (5% TNBS and deionized water were mixed at a volume ratio of 4:1, and the obtained solution was mixed with absolute ethanol at a volume ratio of 1:1, so as to obtain the modeling solution) was injected. The mice were put back into the cage and wake up naturally. The mice in the normal control group were injected with 0.12 ml of solvent (50% ethanol solution) by the same manner.
Administration was started on the day of modeling (using 0.5% sodium carboxymethylcellulose, CMC-Na) for 7 consecutive days.
At 24 hours after the last administration, the mice were sacrificed by cervical dislocation, the peritoneum was cut open, and the whole colon was taken. The intestine was cut longitudinally along the mesenteric margin, rinsed with ice physiological saline, placed on ice, and the pathological changes of the colon were observed. The fat and mesentery were removed, the water was blotted with filter paper, the weight of the colon was weighed and the length was measured. The colon was fixed in 4% formaldehyde for more than 24 hours, dehydrated, paraffin-embedded and H&E stained, and the pathological sections were observed.
The mice were observed and recorded daily for mental state, fur color, and activities. The mice was weighed daily and observed for the stool traits. The body weight index according to the disease activity index (DAI) is as follows:
After the colon of a mouse was removed, the weight of the colon was measured with a precision electronic balance, the length was measured with a vernier caliper, and the weight/length ratio of the colon was calculated.
The criteria for scores were: no adhesion, no ulcer, no inflammation, 0 points; mild adhesion, local congestion, no ulcer, 1 point; severe adhesion, 1 ulcer (area less than 1 cm), no obvious inflammation, 2 points; more than 1 ulcers (area less than 1 cm) with inflammation, 3 points; 2 severe ulcers (area greater than 1 cm) with inflammation, 4 points; and 1 point for each 1 cm increase in ulcer area.
Pathological changes of colon tissue were observed under light microscope, and the scores were recorded. The criteria for scores are as follows:
1) Epithelial cells: normal morphology, 0 points; loss of goblet cells, 1 point; large loss of goblet cells, 2 points; loss of crypt cells, 3 points; large loss of crypt cells, 4 points.
2) Infiltration of inflammatory cells: no infiltration, 0 points; infiltration in the basal layer of the crypt, 1 point; infiltration to the muscular layer of the mucosa, 2 points; infiltration to the muscular layer of the mucosa with mucosal thickening and obvious edema, 3 points; infiltration to the submucosal layer, 4 points.
Data were expressed as […] (mean±S.E.M.), data were analyzed using SPSS statistical software, and one-way ANOVA and Tukey's HSD post hoc test were used for comparison between groups. p<0.05 was considered statistically significant.

As to `O=C(O)c1cc(/N=N/c2ccc(S(=O)(=O)Nc3ccccn3)cc2)ccc1O` [sulfasalazine, reference compound], the “Score (body weight index according to the disease activity index, DAI)” value worked out at 1; the “Length of the colon” value was determined as 5.814 ± 0.465 cm; the “Weight of the colon” value amounted to 0.145 ± 0.018 g; the Histopathology scores is reported as 1.71 ± 0.69. Further, the “Scores of gross morphological damages” value is recorded as 0.81 ± 0.69, the “weight/length ratio (average) of colon” value is given as 0.025# and the “Ratio of weight loss” value was 1.54 ± 3.72. Moreover, the “diarrhea of the mice (general condition)” value (FIG. 2) is listed as “mild”. Also, the death of mice entry (FIG. 2, on the 8th day of the experiment, model group mortality about 50%) is “only one mouse died”. Besides, under “FIG. 3”, the “extent of ulcer lesions of colon and visceral adhesions” value was “can improve the extent of ulcer lesions of colon and visceral adhesions”. The “histopathology of colon (HE staining, mucosal integrity / lesions)” value (FIG. 4) was “largely reversed”.
`CN(/N=C/c1cc(F)c(F)cc1C(=O)O)c1nc(-c2ccccc2Cl)cs1` [Compound 23]: the “Score (body weight index according to the disease activity index, DAI)” value came out at 3; the “Length of the colon” value turned out to be 4.997 ± 0.476 cm; the “Weight of the colon” value is given as 0.153 ± 0.027 g; the Histopathology scores came out at 2.32 ± 0.58. The “Scores of gross morphological damages” value is reported as 2.02 ± 0.60, the “weight/length ratio (average) of colon” value is on record as 0.030# and the “Ratio of weight loss” value was 6.27 ± 2.76.
Regarding `Cc1ccc(/C=N/Nc2nc(-c3ccccc3Cl)cs2)c(C(=O)O)c1` [Compound 9-1], the “Length of the colon” value was determined as 5.985 ± 0.363 cm, the “Weight of the colon” value was 0.152 ± 0.023 g, the Histopathology scores amounted to 3.94 ± 0.51 and the “Scores of gross morphological damages” value is 3.63 ± 0.71. Moreover, the “weight/length ratio (average) of colon” value is 0.025#.
In the same order, the values of `CN(/N=C/c1ccccc1C(=O)O)c1nc(-c2cccc(Cl)c2)cs1` [Compound 21, (E)-4-(3-chlorophenyl)-2-[1-methyl-2-(2-carboxybenzylidene)hydrazino]thiazole] are 4.986 ± 0.452 cm, 0.158 ± 0.025 g, 2.54 ± 0.62, 2.31 ± 0.79 and 0.032#.
Consider `CCCN(/N=C/c1ccccc1C(=O)O)c1nc(-c2ccccc2Cl)cs1` [Compound 3, (E)-4-(2-chlorophenyl)-2-[1-propyl-2-(2-carboxybenzylidene)hydrazino]thiazole], for which the “Score (body weight index according to the disease activity index, DAI)” value turned out to be 2; the “Length of the colon” value is on record as 5.699 ± 0.368 cm; the “Weight of the colon” value is recorded as 0.159 ± 0.023 g; the “weight/length ratio (average) of colon” value was 0.028#. Moreover, the “Ratio of weight loss” value is given as 4.26 ± 4.65.
Consider `CN(/N=C/c1ccc(C(F)(F)F)cc1C(=O)O)c1nc(-c2ccccc2Cl)cs1` [Compound 8, (E)-4-(2-chlorophenyl)-2-[1-methyl-2-(4-trifluoromethyl-2-carboxybenzylidene)hydrazino]thiazole], for which the “Score (body weight index according to the disease activity index, DAI)” value amounted to 1; the “Length of the colon” value was determined as 6.005 ± 0.452 cm; the “Weight of the colon” value stood at 0.157 ± 0.027 g; the Histopathology scores came to 1.59 ± 0.68. Also, the “Scores of gross morphological damages” value turned out to be 1.42 ± 0.78, the “weight/length ratio (average) of colon” value is on record as 0.026# and the “Ratio of weight loss” value is on record as 1.07 ± 2.98.
For the molecule `Cc1ccc(/C=N/N(C)c2nc(-c3ccccc3Cl)cs2)c(C(=O)O)c1` [Compound 9, (E)-4-(2-chlorophenyl)-2-[1-methyl-2-(4-methyl-2-carboxybenzylidene)hydrazino]thiazole], the “Score (body weight index according to the disease activity index, DAI)” value was found to be 1 and the “Ratio of weight loss” value came out at 3.29 ± 4.70.
As to `Cc1sc(N/N=C/c2ccccc2C(=O)O)nc1-c1ccccc1Cl` [Compound 15, (E)-5-methyl-4-(2-chlorophenyl)-2-(2-carboxylbenzylidenehydrazino)thiazole], the “Length of the colon” value amounted to 5.546 ± 0.402 cm, the “Weight of the colon” value was found to be 0.163 ± 0.023 g and the “weight/length ratio (average) of colon” value is 0.029#.
Take `CN(/N=C/c1ccc(F)cc1C(=O)O)c1nc(-c2ccccc2Cl)cs1` [Compound 10, (E)-4-(2-chlorophenyl)-2-[1-methyl-2-(2-carboxyl-4-fluorobenzylidene)hydrazino]thiazole]: the “Score (body weight index according to the disease activity index, DAI)” value was found to be 1; the “Length of the colon” value amounted to 6.321 ± 0.436 cm; the “Weight of the colon” value is 0.162 ± 0.045 g; the Histopathology scores was 2.09 ± 0.44. Further, the “Scores of gross morphological damages” value came to 1.02 ± 0.41, the “weight/length ratio (average) of colon” value is 0.026# and the “Ratio of weight loss” value came out at 1.92 ± 3.20.
Take `O=C(O)c1ccccc1/C=N/Nc1nc(-c2cc(Cl)ccc2Cl)cs1` [Compound 55, (E)-2-((2-(4-(2,5-dichlorophenyl)thiazol-2-yl)hydrazono)methyl)benzoic Acid]: the “Score (body weight index according to the disease activity index, DAI)” value stood at 1; the “Length of the colon” value was 5.675 ± 0.222 cm; the “Weight of the colon” value was 0.148 ± 0.033 g; the Histopathology scores amounted to 1.68 ± 0.32. In addition, the “Scores of gross morphological damages” value is on record as 1.99 ± 0.52, the “weight/length ratio (average) of colon” value was 0.026# and the “Ratio of weight loss” value is on record as 2.74 ± 4.61.
On to `O=C(O)c1c(F)cccc1/C=N/Nc1nc(-c2ccccc2Cl)cs1` [Compound 58, (E)-2-((2-(4-(2-chlorophenyl)thiazol-2-yl)hydrazono)methyl)-6-fluorobenzoic Acid], for which the “Length of the colon” value was 5.575 ± 0.392 cm, the “Weight of the colon” value is reported as 0.162 ± 0.028 g, the Histopathology scores was 3.59 ± 0.61 and the “Scores of gross morphological damages” value is reported as 4.32 ± 0.79. Besides, the “weight/length ratio (average) of colon” value was 0.029#.
Turning to `O=C(O)c1ccccc1/C=N/Nc1nc(-c2ccccc2Cl)cs1` [Compound 16, (E)-4-(2-chlorophenyl)-2-(2-carboxybenzylidenehydrazino)thiazole], the “Score (body weight index according to the disease activity index, DAI)” value was determined as 1; the Histopathology scores was found to be 2.54 ± 0.49; the “Scores of gross morphological damages” value worked out at 2.22 ± 0.54; the “Ratio of weight loss” value is recorded as 3.55 ± 1.47. Also, under “FIG. 2”, the “diarrhea of the mice (general condition)” value was “relieved compared with the model group”. Moreover, the “effect on colonic lesions, comparison of dosages” value (FIG. 3, 5 mg/kg) is “best effect on colonic lesions”. For the same molecule, the “extent of ulcer lesions of colon and visceral adhesions” value (FIG. 3) is “can improve the extent of ulcer lesions of colon and visceral adhesions”. Further, the “histopathology of colon, comparison of dosages” value (FIG. 4, 5 mg/kg and 50 mg/kg vs 20 mg/kg) is “more effective than those at 20 mg/kg”. The “histopathology of colon (HE staining, mucosal integrity / lesions)” value (FIG. 4) is “mucosal integrity was improved to a greater extent”.
As to `CCN(/N=C/c1ccccc1C(=O)O)c1nc(-c2ccccc2Cl)cs1` [Compound 2, (E)-4-(2-chlorophenyl)-2-[1-ethyl-2-(2-carboxybenzylidene)hydrazino]thiazole], the “Score (body weight index according to the disease activity index, DAI)” value was 1; the Histopathology scores is 3.10 ± 0.55; the “Scores of gross morphological damages” value is reported as 3.37 ± 0.60; the “Ratio of weight loss” value is 1.22 ± 3.68.

Source of the values: patent US20190290620A1, “APPLICATIONS OF NOVEL THIAZOLE DERIVATIVE IN TREATING INFLAMMATORY BOWEL DISEASES” (EAST CHINA UNIVERSITY OF SCIENCE AND TECHNOLOGY, priority 2016, published 2019).
